Experimental data reported in ChEMBL document CHEMBL4219043, “Beyond the Rule of 5: Lessons Learned from AbbVie's Drugs and Compound Collection” (J Med Chem, 2018).
Converted amounts (≈) assume the structure as drawn.

How the values were obtained:
[1] = Apparent permeability of the compound by PAMPA; type: ADME
[2] = Half life in dog at 3 mg/kg, po by LC-MS/MS analysis; type: ADME, organism-based, Canis lupus familiaris; settings: in vivo
[3] = Half life in iv dosed rat by LC-MS/MS analysis; type: ADME, organism-based; settings: in vivo
Hepatitis C virus [4] = test: Antiviral activity against HCV genotype 3a infected in human HuH7 replicon cells after 3 days in absence of human plasma by luciferase reporter gene assay; type: functional, organism-based, Hepacivirus hominis; settings: Huh-7, 72 h
[5] = Half life in dog at 1 mg/kg, iv by LC-MS/MS analysis; type: ADME, organism-based, Canis lupus familiaris; settings: in vivo
Hepatitis C virus [6] = test: Antiviral activity against HCV genotype 1b Con1 infected in human HuH7 replicon cells after 3 days in presence of 40% human plasma by luciferase reporter gene assay; type: functional, organism-based, Hepacivirus hominis; settings: isolate Con1, Huh-7, 72 h
[7] = Plasma clearance in dog at 1 mg/kg, iv by LC-MS/MS analysis; type: ADME, organism-based, Canis lupus familiaris
[8] = Oral bioavailability in rat by LC-MS/MS analysis; type: ADME, organism-based; settings: in vivo
[9] = Plasma clearance in iv dosed rat by LC-MS/MS analysis; type: ADME, organism-based
Hepatitis C virus [10] = test: Resistance index, ratio of EC50 for HCV genotype 1a H77 harboring NS3 R155K mutant infected in human HuH7 replicon cells to EC50 for HCV genotype 1a H77 harboring wild type NS3 infected in human HuH7 replicon cells; type: functional, Hepacivirus hominis
Canis familiaris [11] = test: Fraction of drug absorbed into portal vein in dog at 3 mg/kg, po by LC-MS/MS analysis; type: ADME, organism-based, Canis lupus familiaris; settings: in vivo
Hepatitis C virus [12] = test: Ratio of EC50 in presence of 40% human plasma to EC50 in absence of human plasma for HCV genotype 1a H77 infected in human HuH7 replicon cells; type: functional, Hepacivirus hominis
Hepatitis C virus [13] = test: Antiviral activity against HCV genotype 1b Con1 harboring NS3 R155K mutant infected in human HuH7 replicon cells after 3 days by luciferase reporter gene assay; type: functional, organism-based, Hepacivirus hominis; settings: isolate Con1, Huh-7, 72 h
[14] = Solubility in pH 7.2 buffer; type: physicochemical
Hepatitis C virus [15] = test: Antiviral activity against HCV genotype 1a H77 harboring NS3 R155K mutant infected in human HuH7 replicon cells after 3 days by luciferase reporter gene assay; type: functional, organism-based, Hepacivirus hominis; settings: genotype 1a H77, Huh-7, 72 h
Hepatitis C virus [16] = test: Resistance index, ratio of EC50 for HCV genotype 1b Con1 harboring NS3 R155K mutant infected in human HuH7 replicon cells to EC50 for HCV genotype 1b Con1 harboring wild type NS3 infected in human HuH7 replicon cells; type: functional, Hepacivirus hominis, isolate Con1
Hepatitis C virus [17] = test: Antiviral activity against HCV genotype 1a H77 infected in human HuH7 replicon cells after 3 days in absence of human plasma by luciferase reporter gene assay; type: functional, organism-based, Hepacivirus hominis; settings: genotype 1a H77, Huh-7, 72 h
Hepatitis C virus [18] = test: Antiviral activity against HCV genotype 1a H77 harboring NS3 D168V mutant infected in human HuH7 replicon cells after 3 days by luciferase reporter gene assay; type: functional, organism-based, Hepacivirus hominis; settings: genotype 1a H77, Huh-7, 72 h
[19] = Half life in po dosed rat by LC-MS/MS analysis; type: ADME, organism-based; settings: in vivo
Hepatitis C virus [20] = test: Resistance index, ratio of EC50 for HCV genotype 1b Con1 harboring NS3 D168V mutant infected in human HuH7 replicon cells to EC50 for HCV genotype 1b Con1 harboring wild type NS3 infected in human HuH7 replicon cells; type: functional, Hepacivirus hominis, isolate Con1
Hepatitis C virus [21] = test: Antiviral activity against HCV genotype 1b Con1 harboring NS3 D168V mutant infected in human HuH7 replicon cells after 3 days by luciferase reporter gene assay; type: functional, organism-based, Hepacivirus hominis; settings: isolate Con1, Huh-7, 72 h
Hepatitis C virus [22] = test: Antiviral activity against HCV genotype 1b Con1 infected in human HuH7 replicon cells after 3 days in absence of human plasma by luciferase reporter gene assay; type: functional, organism-based, Hepacivirus hominis; settings: isolate Con1, Huh-7, 72 h
Hepatitis C virus [23] = test: Resistance index, ratio of EC50 for HCV genotype 1a H77 harboring NS3 D168V mutant infected in human HuH7 replicon cells to EC50 for HCV genotype 1a H77 harboring wild type NS3 infected in human HuH7 replicon cells; type: functional, Hepacivirus hominis
Hepatitis C virus [24] = test: Antiviral activity against HCV genotype 1a H77 infected in human HuH7 replicon cells after 3 days in presence of 40% human plasma by luciferase reporter gene assay; type: functional, organism-based, Hepacivirus hominis; settings: genotype 1a H77, Huh-7, 72 h
Canis familiaris [25] = test: Dose normalized AUC in dog at 3 mg/kg, po after 24 hrs by LC-MS/MS analysis; type: ADME, organism-based, Canis lupus familiaris; settings: in vivo
Rattus norvegicus = test: Dose normalized AUC in po dosed rat after 24 hrs by LC-MS/MS analysis; type: ADME, organism-based; settings: in vivo
[26] = Ratio of EC50 for HCV genotype 3a infected in human HuH7 replicon cells to EC50 for HCV genotype 1a H77 infected in human HuH7 replicon cells; type: functional
[27] = Oral bioavailability in dog at 3 mg/kg by LC-MS/MS analysis; type: ADME, organism-based, Canis lupus familiaris; settings: in vivo
[28] = Apparent permeability of the compound in human Caco2 cells; type: ADME, cell-based; settings: Caco-2
RS4-11 = test: Antiproliferative activity against human RS4:11 cells in presence of 10% human serum; type: functional, cell-based
MOLT-4 = test: Antiproliferative activity against human MOLT4 cells in presence of 10% human serum; type: functional, cell-based

Row | Structure (SMILES) | Papp [1] [×10⁻⁶ cm/s] | half-life [2] [h] | half-life [3] [h] | half-life [5] [h] | EC50 (Hepatitis C virus [6]) [nM] | clearance [7] [mL/min/kg] | bioavailability [8] [%] | clearance [9] [mL/min/kg] | Ratio EC50 (Hepatitis C virus [10]) | FaFg (Canis familiaris [11]) | Ratio EC50 (Hepatitis C virus [12]) | Solubility [14] [µM] | Ratio EC50 (Hepatitis C virus [16]) | EC50 (Hepatitis C virus [17]) [nM] | EC50 (Hepatitis C virus [18]) [nM] | Ratio EC50 (Hepatitis C virus [20]) | EC50 (Hepatitis C virus [22]) [nM] | Ratio EC50 (Hepatitis C virus [23]) | EC50 (Hepatitis C virus [24]) [nM] | AUC/dose (Canis familiaris [25]) [µg·h/mL] | further results
1 | Cc1cc(C(=O)N[C@H]2CCCCC/C=C\[C@@H]3C[C@@]3(C(=O)NS(=O)(=O)C3(C)CC3)NC(=O)[C@@H]3C[C@@H](Oc4nc5cc(F)ccc5nc4C(F)(F)F)CN3C2=O)no1 | 12.1 | 2.9 | 4.1 | 2.9 | 11 | 0.333 | 27 | 26.7 | 3 | 0.9 | 6 - 35 | 20.6 (≈ 16.6 µg/mL) | 1 | 0.7 | 14 | 4 | 0.5 | 127 | 9 | 46.8 | EC50 (Hepatitis C virus [4]): 124 nM; EC50 (Hepatitis C virus [13]): 0.4 nM; EC50 (Hepatitis C virus [15]): 0.3 nM; half-life [19]: 4.7 h; EC50 (Hepatitis C virus [21]): 1.3 nM; AUC/dose (Rattus norvegicus): 0.19 µg·h/mL
2 | Cc1cc(C(=O)N[C@H]2CCCCC/C=C\[C@@H]3C[C@@]3(C(=O)NS(=O)(=O)C3CC3)NC(=O)[C@@H]3C[C@@H](Oc4nc5cc(F)ccc5nc4C(F)(F)F)CN3C2=O)no1 | 5.1 | 2.2 | 2.1 | 3.5 | 7 | 0.667 | 28 | 38.3 | 3 | 0.8 | 6 - 35 | 155 (≈ 123 µg/mL) | 1 | 0.8 | 14 | 5 | 0.5 | 149 | 7 | 18 | Ratio EC50 [26]: >80; EC50 (Hepatitis C virus [4]): 64 to 83 nM; EC50 (Hepatitis C virus [15]): 0.3 nM; half-life [19]: 1.9 h; EC50 (Hepatitis C virus [21]): 1.5 nM; AUC/dose (Rattus norvegicus): 0.14 µg·h/mL
3 | Cn1ccc(C(=O)N[C@H]2CCCCC/C=C\[C@@H]3C[C@@]3(C(=O)NS(=O)(=O)C3(C)CC3)NC(=O)[C@@H]3C[C@@H](Oc4nc5cc(OC(F)(F)F)ccc5c5ccc(F)cc45)CN3C2=O)n1 | 0.06 | 4 | 5 | 3.2 | 3 | 0.167 | 43 | 18.3 | 65 | 0.8 | >30 | 0.65 (≈ 0.565 µg/mL) | 0.5 | 0.2 | 3 | 2 | 0.1 | 97 | 7 | 138 | bioavailability [27]: 81%; Ratio EC50 [26]: <=10; EC50 (Hepatitis C virus [4]): 0.3 to 0.8 nM; EC50 (Hepatitis C virus [13]): 0.03 nM; EC50 (Hepatitis C virus [15]): 2 nM; half-life [19]: 4.6 h; AUC/dose (Rattus norvegicus): 0.4 µg·h/mL
4 | CC(=O)N(C)[C@@H](CC(C)(C)C)C(=O)N[C@H]1CCCCC/C=C\[C@@H]2C[C@@]2(C(=O)NS(=O)(=O)C2(C)CC2)NC(=O)[C@@H]2C[C@@H](Oc3nc4cc(F)ccc4c4ccccc34)CN2C1=O | 0.28 | 2.1 | 1.7 | 2.2 | 12 | 1.17 | 27 | 51.7 | 0.8 | 0.8 | 6 - 35 | 2.2 (≈ 1.89 µg/mL) | 33 | 0.5 | 0.4 | 11 | 2 | 2 | 7 | 11.6 | bioavailability [27]: 76%; EC50 (Hepatitis C virus [4]): 4 to 8 nM; EC50 (Hepatitis C virus [13]): 8 nM; EC50 (Hepatitis C virus [15]): 0.6 nM; half-life [19]: 1.5 h; EC50 (Hepatitis C virus [21]): 3 nM; AUC/dose (Rattus norvegicus): 0.09 µg·h/mL
5 | Cc1cc(C(=O)N[C@H]2CCCCC/C=C\[C@@H]3C[C@@]3(C(=O)NS(=O)(=O)C3(C)CC3)NC(=O)[C@@H]3C[C@@H](Oc4nc5ccccc5c5ccc(F)cc45)CN3C2=O)no1 | 0.19 | 2 | 3.2 | 2.3 | 8 | 0.333 | 40 | 41.7 | 18 | 1.4 | 6 - 35 | 1.9 (≈ 1.5 µg/mL) | 4 | 0.7 | 8 | 9 | 0.5 | 168 | 6 | 85 | bioavailability [27]: 140%; EC50 (Hepatitis C virus [4]): 4 to 7 nM; EC50 (Hepatitis C virus [13]): 0.4 nM; half-life [19]: 3.5 h; EC50 (Hepatitis C virus [21]): 0.9 nM; AUC/dose (Rattus norvegicus): 0.16 µg·h/mL
6 | Cc1cc(C(=O)N[C@H]2CCCCC/C=C\[C@@H]3C[C@@]3(C(=O)NS(=O)(=O)C3CC3)NC(=O)[C@@H]3C[C@@H](Oc4nc5ccccc5nc4C)CN3C2=O)no1 | 3.5 |  | 2.4 | 1.4 | 9 | 7.83 | 3.9 | 78.3 | 6 | 0.2 | 6 - 35 | > 500 | 2 | 1.4 | 94 | 2 | 0.4 | 177 | 30 | 0.3 | bioavailability [27]: 13%; EC50 (Hepatitis C virus [13]): 2 nM; EC50 (Hepatitis C virus [15]): 3 nM; EC50 (Hepatitis C virus [21]): 5 nM; AUC/dose (Rattus norvegicus): 0.008 µg·h/mL
7 | Cc1cc(C(=O)N[C@H]2CCCCC/C=C\[C@@H]3C[C@@]3(C(=O)NS(=O)(=O)C3CC3)NC(=O)[C@@H]3C[C@@H](Oc4nc5cc(F)ccc5nc4C)CN3C2=O)no1 |  | 2 |  | 2 | 7 | 1.17 |  |  | 7 |  | 6 - 35 | > 500 | 2 | 1.1 | 41 | 4 | 0.8 | 146 | 11 | 18 | bioavailability [27]: 123%; EC50 (Hepatitis C virus [13]): 1.6 nM; EC50 (Hepatitis C virus [15]): 2 nM; Papp [28]: 2.8 ×10⁻⁶ cm/s; EC50 (Hepatitis C virus [21]): 3 nM
8 | CN(C)CC[C@H](CSc1ccccc1)Nc1ccc(S(=O)(=O)NC(=O)c2ccc(N3CCN(Cc4ccccc4-c4ccc(Cl)cc4)CC3)cc2)cc1[N+](=O)[O-] [ABT 737] |  |  |  |  |  |  |  |  |  |  |  |  |  |  |  |  |  |  |  |  | EC50 (RS4-11): 24 nM; EC50 (MOLT-4): 622 nM
9 | CC1(C)CCC(CN2CCN(c3ccc(C(=O)NS(=O)(=O)c4ccc(NCC5CCOCC5)c([N+](=O)[O-])c4)c(Oc4cnc5[nH]ccc5c4)c3)CC2)=C(c2ccc(Cl)cc2)C1 [VENETOCLAX] |  |  |  |  |  |  |  |  |  |  |  |  |  |  |  |  |  |  |  |  | EC50 (RS4-11): 8 nM; EC50 (MOLT-4): > 5000 nM
